What was measured:
[1] = system: Clone #69 CHO-K1 cells expressing EA-NLS/NRS and GR-PL; experiment: EFC assay in stable clone #69 (CHO-K1, EA-NLS/NRS and GR-PL) with or without RU486 pre-incubation; assay type: cell-based; conditions: for Avg luminescence readout / R1 luminescence readout / R3 luminescence readout / Ratio (Avg vs 0 conc): overnight, vehicle pre-incubation; for effect of incubation with RU486 on the EFC response (in words): 10 μM RU486 pre-incubation for one hour
Protocol: In the next experiment, a stable clone (clone #69) expressing both EA-NLS/NRS and GR-PL was isolated in a CHO-K1 parental background. […] 20,000 cells/well were plated in a 96 well white coming multi-well plate and allowed to adhere overnight. The next day, the cells were washed two times with serum free F12 media and 100 μL of serum free F12 media was added to the cells. The cells were then incubated in either vehicle (ethanol-1% final concentration) or 10 μM RU486 for one hour. To the cells, three different concentrations of dexamethasone (300, 100, 30 μM) (an agonist of GR), RU486 (30, 10, 3.33 μM), colchicine (1, 0.3, 0.1 μ/mL) or nocodazole (10, 3.33, 1.11 μg/mL) were added and the incubation went overnight at 37° C. with 5% CO2. The next day, the media was aspirated off and 100 μL of Tropix/ABI Gal screen cell lysis/substrate reagent was added to the cells. The plate was read on the Victor II reader at 30, 60 and 120 minutes.

[2] = system: CHO-K1+EA-NLS/NRS+GR-PL cells; experiment: EFC mitotic index assay, CHO-K1+EA-NLS/NRS+GR-PL cells, antibiotic selected pool (DX M19/GR pool); assay type: cell-based; conditions: 24 hours, 30 min read
Protocol: (§1) In all experiments described, 20,000 cells/well were plated in a 96 well Corning clear bottom white plate in a total volume of 100 μL. The cells were treated for 24 hours with 5 μL of either the appropriate vehicle control or varying concentrations of the six compounds listed above. The next day, 100 μL of Tropix/ABI Gal screen cell lysis buffer/substrate mixture (24:1 ratio of component) was added to the cells/media and the plate was read on the Victor II luminescent plate reader at 30, 60 and 120 minutes after the lysis/substrate addition.
(§2) The initial test of the cell cycle arresting compounds was performed on a double stable cell line having both of the constructs expressing the EA-NLS/NRS and GR-PL. (PL is β-galactosidase enzyme donor fragment and EA is the enzyme acceptor fragment available from DiscoveRx, Fremont, CA.). The parental line, C2C12 is derived from mouse muscle cells. In the experiments in which EA-NLS/NRS and GR-PL are expressed in the C2C12 parental cell line, the constructs were generated by subcloning the human GR sequence into a MFG-based retroviral vector that had been molecularly altered in a lab at Stanford. An MFG vector is described in U.S. Pat. No. 6,544,771. The EA-NLS/NRS fragment was subcloned into a wzl-based retroviral vector again molecularly altered in a lab at Stanford. In the experiments performed using a CHO-K1 parental cell line background the EA-NLS/NRS was subcloned into the Kpn I and Xba I sites of pcDNA3.1 Hygro vector from Invitrogen (catalog #V870-20). The plasmid was introduced into the cells via FuGene6 (Roche) transfection reagent. Cells were selected in the presence of 250 μg/mL of Hygromycin and single cell clones isolated that expressed the EA-NLS/NRS. The human GR gene was cloned by PCR and subcloned into the Xho I and Bam HI sites of the DiscoveRx vector-pCMV-myc-PL (C3). The plasmid was introduced into the selected EA-NLS/NRS expressing clone isolated above by FuGene 6 transfection. Another round of screening in the presence of 300-500 μg/mL of G418 was used to select GR-PL transfected clones. Clonal selection was performed to finally identify the clone that was used in these studies. In the studies using the CHO-K1+cyto-EA and cJUN-PL, the same Invitrogen pcDNA3.1 Hygro vector was used to express EA. In this case, the EA fragment was subcloned into the Kpn I/Not I sites of pcDNA3.1 Hygro. The plasmid DNA was introduced as described above using FuGene6 reagent. Cells were selected in the presence of 250 μg/mL of hygromycin and clonal selection was performed. The c-Jun gene was generated by PCR using an existing template copy of the gene and then subcloned into the Xho I/Bam HI sites of pCMV-PL-myc (C3).
In the next experiment, an antibiotic selected pool population of CHO-K1 cells that express EA-NLS/NRS and GR-PL were tested with the same six set of cell cycle blocking compounds. […] FIGS. 2a and 2b show the immunofluorescence localization of EA and GR-PL in that the blue DAPI nuclear staining can be seen to be concentrated in the nucleus, while the green fluorescein stain on the antibody (from Abcam PLC) to the glucocorticoid receptor is seen in the cytoplasm. […] Again, six tables are presented one for each of the six drugs tested.
This only occurs with compounds that block the cells in mitosis, allowing EA and ProLabel to complement.

[3] = system: C2C12+EA-NLS/NRS+GR-PL cells; experiment: EFC mitotic index assay, C2C12+EA-NLS/NRS+GR-PL cells (Stanford GR cells); assay type: cell-based, mouse; conditions: for Avg luminescence readout / R1 luminescence readout / R3 luminescence readout / Ratio (Avg vs 0 conc): 24 hours, 30 min read
Protocol: as §1, §2

[4] = system: CHO-K1+cyto-EA cells transfected with cJUN-PL; experiment: EFC mitotic index assay, CHO-K1+cyto-EA cells transiently transfected with cJUN-PL; assay type: cell-based; conditions: for Avg luminescence readout / R1 luminescence readout / R3 luminescence readout / Ratio (Avg vs 0 conc): overnight; for increase in EFC activity: overnight incubation
Protocol: as §2
To further test the concept of sequestering of one β-galactosidase enzyme fragment in the nucleus (in this case PL) while localizing the other component in the cytoplasm (in this case EA) the following experiment was carried out. […] The cyto-EA cells were transiently transfected with cJUN-PL plasmid DNA. Two days after the transfection, the cells were re-plated into a 96 well Corning white clear bottom multiwell plate at 20,000 cells/well. The cells were allowed to adhere overnight and the next day were treated with titrating concentrations of the six different cell cycle blocking compounds. The incubation was carried out overnight. The next day the media was removed from the cells and 100 μL of Tropix/ABI Gal screen cell lysis/substrate reagent was added to the cells.

[5] = High conc (nocodazole 10 μg/mL, colchicine 1 μ/mL, dexamethasone 300 μM, RU486 30 μM)
[6] = Low conc (nocodazole 1.11 μg/mL, colchicine 0.1 μ/mL, dexamethasone 30 μM, RU486 3.33 μM)
[7] = Med conc (nocodazole 3.33 μg/mL, colchicine 0.3 μ/mL, dexamethasone 100 μM, RU486 10 μM)

## CC#C[C@]1(O)CC[C@H]2[C@@H]3CCC4=CC(=O)CCC4=C3[C@@H](c3ccc(N(C)C)cc3)C[C@@]21C [RU486]
[1]; [5]
  Avg luminescence readout: 2882
  R1 luminescence readout: 3199
  R3 luminescence readout: 2657
  Ratio (Avg vs 0 conc): 1
[1]; [6]
  Avg luminescence readout: 2416
  R1 luminescence readout: 2692
  R3 luminescence readout: 2298
  Ratio (Avg vs 0 conc): 1
[1]; [7]
  Avg luminescence readout: 2402
  R1 luminescence readout: 2578
  R3 luminescence readout: 2249
  Ratio (Avg vs 0 conc): 1

## COc1cc2c(c(OC)c1OC)-c1ccc(OC)c(=O)cc1[C@@H](NC(C)=O)CC2 [Colchicine, colchicine]
[2]; 0.03 μM
  Avg luminescence readout: 3412
  R1 luminescence readout: 3128
  R3 luminescence readout: 3727
  Ratio (Avg vs 0 conc): 1
[2]; 0.1 μM
  Avg luminescence readout: 5814
  R1 luminescence readout: 6507
  R3 luminescence readout: 4886
  Ratio (Avg vs 0 conc): 2
[2]; 0.3 μM
  Avg luminescence readout: 7251
  R1 luminescence readout: 7078
  R3 luminescence readout: 7341
  Ratio (Avg vs 0 conc): 3
[2]; 1 μM
  Avg luminescence readout: 11843
  R1 luminescence readout: 10671
  R3 luminescence readout: 13178
  Ratio (Avg vs 0 conc): 4
[1]
  effect of incubation with RU486 on the EFC response (in words): not blocked by the incubation with RU486
[1]; [5]
  Avg luminescence readout: 1623
  R1 luminescence readout: 1850
  R3 luminescence readout: 1323
  Ratio (Avg vs 0 conc): 4
[1]; [6]
  Avg luminescence readout: 1136
  R1 luminescence readout: 1274
  R3 luminescence readout: 1007
  Ratio (Avg vs 0 conc): 3
[1]; [7]
  Avg luminescence readout: 1241
  R1 luminescence readout: 1345
  R3 luminescence readout: 1073
  Ratio (Avg vs 0 conc): 3
[3]; 0.03 μM
  Avg luminescence readout: 11782
  R1 luminescence readout: 10442
  R3 luminescence readout: 12456
  Ratio (Avg vs 0 conc): 1
[3]; 0.1 μM
  Avg luminescence readout: 9170
  R1 luminescence readout: 6763
  R3 luminescence readout: 10724
  Ratio (Avg vs 0 conc): 1
[3]; 0.3 μM
  Avg luminescence readout: 11243
  R1 luminescence readout: 11132
  R3 luminescence readout: 12160
  Ratio (Avg vs 0 conc): 1
[3]; 1 μM
  Avg luminescence readout: 12083
  R1 luminescence readout: 11891
  R3 luminescence readout: 11866
  Ratio (Avg vs 0 conc): 1
[4]; 0.3 μg/mL
  Avg luminescence readout: 8548
  R1 luminescence readout: 7491
  R3 luminescence readout: 9730
  Ratio (Avg vs 0 conc): 1.2
[4]; 1.0 μg/mL
  Avg luminescence readout: 10762
  R1 luminescence readout: 11290
  R3 luminescence readout: 9929
  Ratio (Avg vs 0 conc): 1.5
[4]; 3.0 μg/mL
  Avg luminescence readout: 13255
  R1 luminescence readout: 12822
  R3 luminescence readout: 13005
  Ratio (Avg vs 0 conc): 1.9
[4]; 10.0 μg/mL
  Avg luminescence readout: 14719
  R1 luminescence readout: 13772
  R3 luminescence readout: 14302
  Ratio (Avg vs 0 conc): 2.1
[4]
  increase in EFC activity: ~2.1 fold

## C[C@@H]1C[C@H]2[C@@H]3CCC4=CC(=O)C=C[C@]4(C)[C@@]3(F)[C@@H](O)C[C@]2(C)[C@@]1(O)C(=O)CO [Dexamethasone, dexamethasone]
[1]; [5]
  Avg luminescence readout: 2559
  R1 luminescence readout: 3173
  R3 luminescence readout: 1934
  Ratio (Avg vs 0 conc): 7
[1]; [6]
  Avg luminescence readout: 1258
  R1 luminescence readout: 1528
  R3 luminescence readout: 1016
  Ratio (Avg vs 0 conc): 3
[1]; [7]
  Avg luminescence readout: 1697
  R1 luminescence readout: 2033
  R3 luminescence readout: 1290
  Ratio (Avg vs 0 conc): 4

## COC(=O)Nc1nc2ccc(C(=O)c3cccs3)cc2[nH]1 [Nocodazole, nocodazole]
[2]; 0.3 μg/mL
  Avg luminescence readout: 15528
  R1 luminescence readout: 15003
  R3 luminescence readout: 13585
  Ratio (Avg vs 0 conc): 2
[2]; 1.0 μg/mL
  Avg luminescence readout: 24777
  R1 luminescence readout: 23225
  R3 luminescence readout: 24165
  Ratio (Avg vs 0 conc): 3
[2]; 3.3 μg/mL
  Avg luminescence readout: 23766
  R1 luminescence readout: 24010
  R3 luminescence readout: 23172
  Ratio (Avg vs 0 conc): 3
[2]; 10.0 μg/mL
  Avg luminescence readout: 25709
  R1 luminescence readout: 22978
  R3 luminescence readout: 28584
  Ratio (Avg vs 0 conc): 3
[1]
  effect of incubation with RU486 on the EFC response (in words): not blocked by the incubation with RU486
[1]; [5]
  Avg luminescence readout: 11592
  R1 luminescence readout: 11504
  R3 luminescence readout: 11616
  Ratio (Avg vs 0 conc): 4
[1]; [6]
  Avg luminescence readout: 11575
  R1 luminescence readout: 11488
  R3 luminescence readout: 11606
  Ratio (Avg vs 0 conc): 4
[1]; [7]
  Avg luminescence readout: 11445
  R1 luminescence readout: 11364
  R3 luminescence readout: 11457
  Ratio (Avg vs 0 conc): 4
[3]; 0.3 μg/mL
  Avg luminescence readout: 4443
  R1 luminescence readout: 4243
  R3 luminescence readout: 4599
  Ratio (Avg vs 0 conc): 1
[3]; 1.0 μg/mL
  Avg luminescence readout: 6354
  R1 luminescence readout: 6029
  R3 luminescence readout: 6678
  Ratio (Avg vs 0 conc): 2
[3]; 3.3 μg/mL
  Avg luminescence readout: 6068
  R1 luminescence readout: 5669
  R3 luminescence readout: 6360
  Ratio (Avg vs 0 conc): 2
[3]; 10.0 μg/mL
  Avg luminescence readout: 5867
  R1 luminescence readout: 4401
  R3 luminescence readout: 5806
  Ratio (Avg vs 0 conc): 2
[3]; treatment 1-10 μg/mL
  increase in EFC activity: ~2 fold
[4]; 3.0 μg/mL
  Avg luminescence readout: 9887
  R1 luminescence readout: 9509
  R3 luminescence readout: 9751
  Ratio (Avg vs 0 conc): 1.4
[4]; 10.0 μg/mL
  Avg luminescence readout: 12728
  R1 luminescence readout: 11991
  R3 luminescence readout: 12371
  Ratio (Avg vs 0 conc): 1.8
[4]; 30.0 μg/mL
  Avg luminescence readout: 11870
  R1 luminescence readout: 10083
  R3 luminescence readout: 12287
  Ratio (Avg vs 0 conc): 1.6
[4]; 100.0 μg/mL
  Avg luminescence readout: 14898
  R1 luminescence readout: 13010
  R3 luminescence readout: 16060
  Ratio (Avg vs 0 conc): 2.1
[4]
  increase in EFC activity: ~2.1 fold

— patent US20070015232A1, “Mitotic index assay” (DiscoveRx, Inc., priority 2005, published 2007)
